Test results taken from US9839614B2, “Nanoparticle and polymer formulations for thyroid hormone analogs, antagonists, and formulations and uses thereof” (NANOPHARMACEUTICALS LLC, priority 2009, dated 2017).

Key:
[1] = system: MDA-MB-231 cells gene expression; experiment: RNA microarray of MDA-MB-231 cells (Example 17); type: cell-based, human; conditions: 24 h
Procedure: Expression of ˜54,000 transcripts was analyzed in control and drug-treated cultures, using Affymetrix Human Genome U133 plus 2.0 microarrays. Subsequent analysis was focused on genes affected by treatment at p<0.01. There was 93% concordance between Tetrac and Tetrac NP in terms of genes affected; notable disparities included downregulation of epidermal growth factor receptor (EGFR) by Tetrac NP and no affect of unmodified Tetrac on this gene.

GL261 tumor cells = experiment: GL261 apoptosis and necrosis with or without 5 Gy x-rays; type: cell-based, murine; conditions: Tetrac 2 μM, T-NP 0.2 μM
Procedure: FIG. 61 is a comparison of apoptosis on Tetrac (2 μM) and T-NP (0.2 μM) treated GL261 cells that were or were not exposed to 5 Gy x-rays. The effects of Tetrac and T-NP plus 5 Gy of x-rays on apoptosis appear to be supra-additive.
Apoptotic cells were identified using TUNEL staining (Terminal deoxynucleotidyl transferase dUTP nick end labeling (TUNEL)) (staining kit obtained from Oncor, Gaithersberg, Md.; ApoTag) (See Gavrieli et al., J. Cell. Biol. 1992. 119:493-501). The staining procedures were carried out as instructed by the manufacturer. Gill's hematoxylin was used as a counterstain to discriminate negative cells (purple) from positive cells (brown). Negative controls were performed by omitting the terminal deoxynucleotidyl transferase enzyme. […]
To perform FCM, a total of 10^6 adherent cells were trypsinized and washed once in ambient temperature PBS. […] Cells were left overnight at 4° C. in the dark and were then analyzed on a Coulter fluorescence-activated cell sorter (Coulter Electronics, Hialeah, Fla.). Cells were excited with a single 488 nm argon laser and the resulting fluorescence was detected using a 585 nm filter. Linear red-orange fluorescence (FL3) data were collected in list format and 10,000 events were collected. The distribution of cells within the cell cycle (sub-G1, G1, S, and G2 M phases) was determined using a Coulter software program.

[2] = system: P-gp, GST and SOD in MCF7/R cells; experiment: Western blot of drug resistance genes; type: cell-based; conditions: 24 h
Procedure: FIG. 15A is a Western blot showing the expression of P-gp, GST and SOD in wild type (W) drug sensitive and resistant (R) MCF7 cells.
The cells were treated for 24 h with each drug alone or the combination of both, after that, expression of drug resistance molecules was determined by Western blot using specific antibodies.

[3] = system: human medullary carcinoma of the thyroid (MTC) xenografts; conditions: mouse, in vivo
Procedure: Human medullary carcinoma cells (TT, Catalog No. CRL-1803) were purchased from American Type Culture Collection (Manassas, Va.) and cultured as instructed by the supplier, using a complete growth medium consisting of F-12K medium with 10% FBS. Cells were cultured in 5% CO2/air atmosphere at 37 C to sub-confluence and then treated with 0.25% (w/v) trypsin/EDTA to affect cell release from the culture vessel. After washing with culture medium, the cells were suspended in DMEM (free of phenol red and FBS) and counted. • Tetrac versus tetrac NP distribution in h-MTC. […] Female NCr nude homozygous mice aged 5-6 weeks and body weights of 20 g were purchased form Taconic Farms (Hudson N.Y.). Animals were maintained under specific pathogen-free conditions and housed 4 animals per cage, under controlled conditions of temperature (20-24° C.) and humidity (60-70%) and a 12 h light/dark cycle. Water and food were provided ad libitum.

## O=C(O)Cc1cc(I)c(Oc2cc(I)c(O)c(I)c2)c(I)c1 [Tetrac, tetraiodothyroacetic acid]
[1]; 10^−7M (Tetrac equivalent), hormone-stripped serum
  Change: CDKN2C: ↑
[1]; 10^−7M
  Change: BCL2L14: ↑
  Change: CASP2: ↑
  Change: CBY1: ↑
  Change: CTNNA1: ↓
  Change: CTNNA2: ↓
  Change: CTSL1: ↓
  Change: CXCL10: ↑
  Change: Cyclins: ↓
  Change: EDN1: ↑
  Change: Interleukins: ↓
  Change: MCL1: ↓
  Change: NR1D1: ↓
  Change: THBS1: ↑
  Change: XIAP: ↓
  epidermal growth factor receptor (EGFR) expression: no affect
GL261 tumor cells
  effect on apoptosis combined with 5 Gy of x-rays: supra-additive
GL261 tumor cells; 120 hours
  effect on necrosis combined with x-rays: essentially additive
[2]
  expression of P-glycoprotein, SOD, and GST-π: none of these genes was significantly altered
[3]
  mortality: no mortality
